Details of series [1]: species or system Korean healthy males. The note with it: in vivo. As to the method: Drug exposure as AUC was studied among Korean healthy males aged between 20 and 50 years in two clinical studies: (1) a randomized, open-label, multiple-dose, cross-over study of 36 subjects divided into 6 cohorts and treated over 3 periods (subjects were administered either 1 tablet of 40 mg olmesartan medoxomil, 1 tablet of 20 mg rosuvastatin calcium, or a 1 tablet each of both agents (fixed dosage composition, single dose form) orally every 24 hours for 7 days, with an 8-day washout period separating the individual treatment courses) and (2) a randomized, open-label, single-dose, cross-over study of 58 subjects divided into 2 cohorts and treated over 2 periods (Son H, Roh H, Lee D, Chang H, Kim J, Yun C, et al. Pharmacokinetics of rosuvastatin/olmesartan fixed-dose combination: a single-dose, randomized, open-label, 2-period crossover study in healthy Korean subjects. Clin Ther 2013; 35:915-22) (one tablet of ST-101, also known as olmesartan/rosuvastatin FDC, tablet of 40 mg olmesartan medoxomil/20 mg rosuvastatin calcium was administered once orally as the test drug, or 1 tablet each of 40 mg olmesartan medoxomil and 20 mg rosuvastatin calcium was co-administered once orally as the comparator; eligible subjects were randomly assigned to 2 groups (test arm vs comparator arm) in a 1:1 ratio; each subject received a single dose of the FDC or the comparator orally in a fasted state, with a 7-day washout period between the administrations.
A total of 34 volunteers in study 1 and 54 volunteers in study 2 were evaluated for olmesartan pharmacokinetic (PK) analysis. For PK analyses, blood samples were collected at 0 (pre-dose), 0.5, 2, 2.5, 3, 4, 5, 6, 7, 8, 10, 12, 16, 24, 48 hour after dosing of olmesartan either as FDC or as single agent.
FIG. 1 compares individual values of olmesartan AUC when dosed as either olmesartan single agent (OM) or olmesartan/rosuvastatin (OM/RC) fixed dose composition (FDC). […] The coefficient of variations were 29.95% and 24.42% for olmesartan single agent and OM/RC FDC, respectively. The tabulated summary of the data including Gaussian tests are shown below in Table 1.
FIG. 6 illustrates the linear correlation between the first and second pharmacokinetic determinations (AUC) for olmesartan. The linear regression is described by the following equation: Y=0.9782*X. The p value of significant deviation from 0 is less than 0.0001.

Series [2] concerns Korean subjects with hypertension associated with dyslipidemia. The experiment in a line: Phase 3 clinical study, variability of SBP and DBP reduction. The series is classed as in vivo, human (Korean subjects). The note with it: once daily up to 8 weeks; olmesartan medoxomil 40 mg. The procedure:
Hypertension therapy effectiveness was evaluated by evaluating the variability of systolic blood pressure (SBP) and diastolic blood pressure (DBP) reduction following dosing with olmesartan single agent (OM) or a fixed dosage composition comprising olmesartan and rosuvastatin (OM/RC FDC). […] The study was a multi-site, randomized, double-blind, placebo-controlled, factorial, 4 arm, 8 week Phase 3 clinical study of Korean subjects with hypertension associated with dyslipidemia aged between 20 and 80 years. Following a 4-week therapeutic lifestyle-change period that included a washout period, eligible patients were randomized in a 2:1:1:1 ratio to receive either OM/RC FDC, olmesartan medoxomil 40 mg, rosuvastatin calcium 20 mg, or placebo, once daily, for up to 8 weeks. A total of 183 subjects were randomized (72 subjects in OM/RC FDC, 39 subjects in olmesartan medoxomil 40 mg, 38 subjects in rosuvastatin calcium 20 mg, and 34 subjects in placebo). Among the 183 randomized subjects, 181 subjects took the investigational drug (ST-101/OM/RC FDC), 162 subjects completed the study, and 21 of […] subjects were discontinued from the study. The SBP and DBP reduction was highly variable. FIG. 2 compares the variability of systolic blood pressure (SBP) reduction after dosing with olmesartan single agent (olmesartan) or olmesartan/rosuvastatin fixed dose combination (OM/RC FDC, ST-101). […]

Series [3] concerns patients with hypertension. The experiment in a line: Dose response of blood pressure reduction, analysis of 21 published clinical studies. The series is classed as in vivo, human. The note with it: olmesartan medoxomil 5 to 80 mg monotherapy, 21 clinical studies. As to the method:
PubMed database was searched to identify relevant scientific and review articles from June 2001 to June 2015 using the search terms olmesartan efficacy, response, effect/clinical trial. Reference lists of included articles were reviewed to locate additional references of interest. PD studies with olmesartan medoxomil dose range from 5 to 80 mg monotherapy were selected. PD response and demographic data from a total of 10,770 patients with hypertension in 21 clinical studies were included in the analysis (Oparil S, Williams D, Chrysant S G, Marbury T C, Neutel J. (2001). Comparative efficacy of olmesartan, losartan, valsartan, and irbesartan in the control of essential hypertension. J Clin Hypertens (Greenwich) 2001; 3(5):283-318; Püchler K, Laeis P, Stumpe K O. Blood pressure response, but not adverse event incidence, correlates with dose of angiotensin II antagonist. J Hypertens Suppl 2001 June; 19(1):S41-8; Neutel J M, Elliott W J, Izzo J L, Chen C L, Masonson H N. Antihypertensive efficacy of olmesartan medoxomil, a new angiotensin II receptor antagonist, as assessed by ambulatory blood pressure measurements. […] J Hum Hypertens 2002; 16(Suppl 2):S24-8; Brunner H R, Stumpe K O, Januszewicz A. Antihypertensive efficacy of olmesartan medoxomil and candesartan cilexetil assessed by 24-hour ambulatory blood pressure monitoring in patients with essential hypertension. […]

On the set-up of series [4]: species or system healthy subjects (Asian and non-Asian). To be noted: in vivo. From the text:
PubMed database was searched to identify relevant scientific and review articles from May 2001 to June 2015 using the search term olmesartan PK. Reference lists of included articles were reviewed to locate additional references of interest. PK studies with single dose AUC of olmesartan medoxomil in healthy subjects were selected. Olmesartan medoxomil AUC from co-administration of olmesartan medoxomil with other drugs or FDC containing olmesartan medoxomil were also included if there was no known drug-drug interaction (DDI). The pharmacokinetic datasets for olmesartan were obtained from published clinical studies across Asian and non-Asian subjects with a dose range from 10 to 160 mg. More than 80% of the studies reported AUC in arithmetic mean. […] PK and demographic data from a total of 895 healthy subjects from 13 clinical studies were included in the final analysis Schwocho L R and Masonson H N. Pharmacokinetics of CS866, a new angiotensin II receptor block, in healthy subjects. J Clin Pharmacol 2001; 41:515-27; von Bergmann K, Laeis P, Pilchler K, Sudhop T, Schwocho L R, Gonzalez L. Olmesartan medoxomil: influence of age, renal and hepatic function on the PK of olmesartan medoxomil. […]

As for `CCCc1nc(C(C)(C)O)c(C(=O)OCc2oc(=O)oc2C)n1Cc1ccc(-c2ccccc2-c2nnn[nH]2)cc1` [OM Single Agent, olmesartan medoxomil], the “slope of linear regression between first and second AUC determinations (Y=slope*X)” value in series [1] was determined as 0.9782. In series [1] (po, 40 mg), the “coefficient of variation of olmesartan AUC” value is listed as 29.95%; the “olmesartan AUC, 25% Percentile” value is 6317; the “olmesartan AUC, 75% Percentile” value is listed as 8916; the “olmesartan AUC, Maximum” value worked out at 17026. Besides, in series [1] (po, 40 mg), the “olmesartan AUC, Mean” value worked out at 7908; the olmesartan AUC, Median was 7450 ng·h/mL; the “olmesartan AUC, Minimum” value amounted to 3899. Also, in series [2], the “coefficient of variation for DBP reduction” value is recorded as 79.25% and the “coefficient of variation for SBP reduction” value is given as 78.24%. In series [3], the “relationship between DBP reduction and dose (regression analysis)” value was “very shallow insignificant relationship”. In series [3] (p=0.04), the “correlation between SBP reduction and dose (regression analysis)” value was “only weak correlation”. In series [4], the “AUC among Asian subjects versus non-Asian subjects” value is recorded as “comparable to AUC in non-Asian subjects at the same dose level” and the “dependence of AUC on dose” value is recorded as “linear dose-dependent increase in AUC from 10 to 160 mg”.

Source of the values: patent US20160199354A1, “METHODS FOR OLMESARTAN DOSING BY AUC” (Autotelic LLC, priority 2015, published 2016).
